{"source": "patent US10517889B2", "about": "“Modulators of SMAD7 expression” (Ionis Pharmaceuticals, Inc., priority 2017, dated 2019)", "test_system": "human SMAD7 mRNA", "assay": "Antisense inhibition of human SMAD7 mRNA expression in Hep3B cells by 3-10-3 cEt gapmers, 10,000 nM, electroporation (Example 2)", "format": "cell-based", "conditions": "approximately 24 hours", "in_short": "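Percent inhibition of SMAD7 mRNA, relative to untreated cells, after ~24 h exposure of electroporated Hep3B cells to 10,000 nM cEt gapmer; levels by qRT-PCR, corrected for total RNA.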", "key": {"[1]": {"conditions": "Hep3B cells, 10,000 nM antisense oligonucleotide, electroporation, RT-PCR primer probe set RTS5062, relative to untreated control cells"}, "[2]": {"conditions": "Hep3B cells, electroporation with 10,000 nM antisense oligonucleotide, SMAD7 mRNA by RT-PCR (RTS5062), relative to untreated control cells"}, "[3]": {"conditions": "SMAD7 mRNA, Hep3B cells, electroporation with 10,000 nM antisense oligonucleotide, primer probe set RTS5062, relative to untreated control cells"}, "[4]": {"conditions": "Hep3B cells, electroporation with 10,000 nM antisense oligonucleotide, primer probe set RTS5062, relative to untreated control cells"}, "[5]": {"conditions": "SMAD7 mRNA, Hep3B cells, 10,000 nM antisense oligonucleotide, electroporation, primer probe set RTS5062, relative to untreated control cells"}}, "note": "Strand notation (5' to 3'): a small letter for the sugar, then the base; units joined by * are phosphorothioate-linked, units joined directly phosphodiester-linked; [ ] holds rarer units or linkages, { } end groups; capitals alone tell only the bases. k = constrained ethyl (cEt); [5mC] = 5-methylcytosine; d = 2'-deoxy (DNA)", "data": [{"substance": "800050 (antisense kG*k[5mC]*kT*dT*dA*dT*dT*dT*dT*d[5mC]*d[5mC]*d[5mC]*dA*kA*kT*kT) [compound 800050]", "values": [{"measurement": "% Inhibition", "setting": "[1]", "value": 10, "unit": "%"}]}, {"substance": "800043 (kT*kG*k[5mC]*d[5mC]*dA*dG*dG*d[5mC]*d[5mC]*dT*dG*dT*d[5mC]*kA*kG*k[5mC]; antisense) [compound 800043]", "values": [{"measurement": "% Inhibition", "setting": "[2]", "value": 31, "unit": "%"}]}, {"substance": "800070 (antisense k[5mC]*k[5mC]*kA*dT*dG*dG*d[5mC]*dG*dG*dA*dA*dG*dA*kT*kG*kG) [compound 800070]", "values": [{"measurement": "% Inhibition", "setting": "[1]", "value": 9, "unit": "%"}]}, {"substance": "830109 (kA*kT*kT*d[5mC]*dA*dT*dT*dA*dA*dG*d[5mC]*d[5mC]*d[5mC]*kG*k[5mC]*kT; antisense) [compound 830109]", "values": [{"measurement": "% Inhibition", "setting": "[2]", "value": 44, "unit": "%"}]}, {"substance": "829868 (antisense kA*kG*kT*dG*dT*dG*dG*d[5mC]*dG*dG*dA*d[5mC]*dT*kT*kG*kA) [compound 829868]", "values": [{"measurement": "% Inhibition", "setting": "[3]", "value": 52, "unit": "%"}]}, {"substance": "798669 (k[5mC]*kG*k[5mC]*dT*d[5mC]*d[5mC]*dG*dT*dG*dG*d[5mC]*dA*dT*kG*k[5mC]*kG; antisense) [compound 798669]", "values": [{"measurement": "% Inhibition", "setting": "[2]", "value": 0, "unit": "%"}]}, {"substance": "798759 (kG*kG*k[5mC]*dG*dG*d[5mC]*dT*dG*d[5mC]*dG*d[5mC]*dA*dG*kG*k[5mC]*kT; antisense) [compound 798759]", "values": [{"measurement": "% inhibition of SMAD7 mRNA expression", "setting": "[4]", "value": 40, "unit": "%"}]}, {"substance": "799506 (antisense kG*kG*kA*dG*dA*dG*d[5mC]*d[5mC]*d[5mC]*dG*dG*d[5mC]*dT*kA*kA*kG) [compound 799506]", "values": [{"measurement": "% Inhibition", "setting": "[2]", "value": 4, "unit": "%"}]}, {"substance": "800104 (antisense kA*kG*kG*dA*d[5mC]*dG*dA*dG*dA*d[5mC]*dA*dG*dA*kA*kA*kG) [compound 800104]", "values": [{"measurement": "% Inhibition", "setting": "[2]", "value": 17, "unit": "%"}]}, {"substance": "799677 (antisense kG*k[5mC]*kT*d[5mC]*dA*dT*dG*dA*dG*d[5mC]*dA*dT*dT*kT*kG*kG) [compound 799677]", "values": [{"measurement": "% inhibition of SMAD7 mRNA expression", "setting": "Hep3B cells, electroporation, 10,000 nM antisense oligonucleotide, RTS5062, relative to untreated control cells", "value": 68, "unit": "%"}]}, {"substance": "829796 (kT*kT*kG*dA*dT*d[5mC]*dT*dT*d[5mC]*d[5mC]*d[5mC]*dG*dT*kA*kA*kG; antisense) [compound 829796]", "values": [{"measurement": "% Inhibition", "setting": "[3]", "value": 27, "unit": "%"}]}, {"substance": "799855 (kA*kG*k[5mC]*d[5mC]*dA*dA*dG*dT*dG*dT*d[5mC]*d[5mC]*dA*kT*k[5mC]*kA; antisense) [compound 799855]", "values": [{"measurement": "% Inhibition", "setting": "[1]", "value": 52, "unit": "%"}]}, {"substance": "799340 (kA*kG*kA*dT*dA*d[5mC]*d[5mC]*d[5mC]*dA*dG*dT*dT*d[5mC]*kG*kG*k[5mC]; antisense) [compound 799340]", "values": [{"measurement": "% inhibition of SMAD7 mRNA expression", "setting": "[4]", "value": 0, "unit": "%"}]}, {"substance": "799917 (antisense kT*kG*kG*dA*dG*dA*dA*dT*dG*dT*dA*dA*dT*kT*kG*kA) [compound 799917]", "values": [{"measurement": "% Inhibition", "setting": "[1]", "value": 17, "unit": "%"}]}, {"substance": "799297 (antisense kA*kA*kA*dG*dG*d[5mC]*dT*dG*dA*d[5mC]*dT*d[5mC]*dG*k[5mC]*kG*kG) [compound 799297]", "values": [{"measurement": "% Inhibition", "setting": "Hep3B cells, electroporation with 10,000 nM antisense oligonucleotide, RTS5062, percent inhibition of SMAD7 mRNA relative to untreated control cells", "value": 62, "unit": "%"}]}, {"substance": "772614 (kG*kA*k[5mC]*dT*d[5mC]*dT*dT*dG*dT*dT*dG*dT*d[5mC]*k[5mC]*kG*kA; antisense) [compound 772614]", "values": [{"measurement": "% Inhibition", "setting": "[5]", "value": 43, "unit": "%"}]}, {"substance": "830194 (antisense k[5mC]*k[5mC]*kT*dT*dT*dT*d[5mC]*d[5mC]*dG*dG*dT*dA*dT*kT*kT*kT) [compound 830194]", "values": [{"measurement": "% Inhibition", "setting": "[2]", "value": 49, "unit": "%"}]}, {"substance": "829795 (kT*kG*kA*dT*d[5mC]*dT*dT*d[5mC]*d[5mC]*d[5mC]*dG*dT*dA*kA*kG*kA; antisense) [compound 829795]", "values": [{"measurement": "% Inhibition", "setting": "[3]", "value": 34, "unit": "%"}]}, {"substance": "829909 (antisense k[5mC]*kG*kG*d[5mC]*dT*dA*d[5mC]*d[5mC]*dG*dG*d[5mC]*dT*dG*kT*kT*kG) [compound 829909]", "values": [{"measurement": "% Inhibition", "setting": "[3]", "value": 34, "unit": "%"}]}, {"substance": "799209 (kT*kA*kA*dT*dG*dA*dT*dG*d[5mC]*dT*dT*dA*dT*kA*kA*kA; antisense) [compound 799209]", "values": [{"measurement": "% Inhibition", "setting": "[4]", "value": 14, "unit": "%"}]}, {"substance": "800089 (antisense kA*kG*kG*dA*dA*d[5mC]*d[5mC]*dT*dA*dT*d[5mC]*dT*dG*kG*kT*kA) [compound 800089]", "values": [{"measurement": "% Inhibition", "setting": "[1]", "value": 0, "unit": "%"}]}, {"substance": "790521 (kG*kG*k[5mC]*dT*dG*dT*dA*d[5mC]*dG*d[5mC]*d[5mC]*dT*dT*k[5mC]*kT*k[5mC]; antisense) [compound 790521]", "values": [{"measurement": "% Inhibition", "setting": "[5]", "value": 19, "unit": "%"}]}, {"substance": "772593 (kA*k[5mC]*kG*d[5mC]*dA*d[5mC]*d[5mC]*dA*dG*dT*dG*dT*dG*kA*k[5mC]*k[5mC]; antisense) [compound 772593]", "values": [{"measurement": "% Inhibition", "setting": "[5]", "value": 42, "unit": "%"}]}, {"substance": "799416 (antisense kA*kA*kG*dA*d[5mC]*d[5mC]*dT*dG*dG*dG*dT*d[5mC]*dA*kG*k[5mC]*kG) [compound 799416]", "values": [{"measurement": "% inhibition of SMAD7 mRNA expression", "setting": "[4]", "value": 41, "unit": "%"}]}, {"substance": "829763 (antisense kG*kT*kT*dT*d[5mC]*dT*dT*dG*dA*dG*d[5mC]*dA*d[5mC]*k[5mC]*kG*kA) [compound 829763]", "values": [{"measurement": "% Inhibition", "setting": "[5]", "value": 65, "unit": "%"}]}, {"substance": "799852 (k[5mC]*kA*kA*dG*dT*dG*dT*d[5mC]*d[5mC]*dA*dT*d[5mC]*dA*kA*kG*k[5mC]; antisense) [compound 799852]", "values": [{"measurement": "% Inhibition", "setting": "[1]", "value": 11, "unit": "%"}]}, {"substance": "799952 (antisense k[5mC]*kT*k[5mC]*dT*dA*dA*dG*dT*dG*dG*d[5mC]*dT*d[5mC]*kA*kT*kG) [compound 799952]", "values": [{"measurement": "% Inhibition", "setting": "[1]", "value": 30, "unit": "%"}]}, {"substance": "799909 (antisense kA*kT*kT*d[5mC]*dA*dT*dA*dA*dT*dA*dT*dT*dG*kA*k[5mC]*kA) [compound 799909]", "values": [{"measurement": "% Inhibition", "setting": "[2]", "value": 36, "unit": "%"}]}, {"substance": "800030 (kA*kA*kA*d[5mC]*dA*d[5mC]*dA*dG*dT*dT*d[5mC]*d[5mC]*d[5mC]*kT*kG*kA; antisense) [compound 800030]", "values": [{"measurement": "% Inhibition", "setting": "[1]", "value": 0, "unit": "%"}]}, {"substance": "798896 (kG*kG*kG*dT*dG*dT*dA*dG*d[5mC]*dA*d[5mC]*dT*dG*kG*k[5mC]*k[5mC]; antisense) [compound 798896]", "values": [{"measurement": "% Inhibition", "setting": "[1]", "value": 46, "unit": "%"}]}, {"substance": "830115 (kA*k[5mC]*k[5mC]*d[5mC]*dT*dA*dA*dA*d[5mC]*dT*dG*dA*dG*k[5mC]*k[5mC]*k[5mC]; antisense) [compound 830115]", "values": [{"measurement": "% Inhibition", "setting": "[2]", "value": 9, "unit": "%"}]}, {"substance": "829922 (antisense kG*kT*kA*dT*d[5mC]*dA*dT*dA*d[5mC]*dG*dA*dG*dT*kG*kT*kA) [compound 829922]", "values": [{"measurement": "% Inhibition", "setting": "[3]", "value": 56, "unit": "%"}]}, {"substance": "798719 (antisense kA*kG*k[5mC]*dA*dT*d[5mC]*d[5mC]*dA*dG*d[5mC]*d[5mC]*d[5mC]*dT*kG*k[5mC]*k[5mC]) [compound 798719]", "values": [{"measurement": "% Inhibition", "setting": "[2]", "value": 34, "unit": "%"}]}, {"substance": "800049 (antisense kA*kA*k[5mC]*dA*dA*dA*d[5mC]*d[5mC]*dT*dG*dG*d[5mC]*d[5mC]*kT*kG*kG) [compound 800049]", "values": [{"measurement": "% Inhibition", "setting": "[1]", "value": 7, "unit": "%"}]}, {"substance": "829775 (antisense k[5mC]*kG*kA*dG*dT*dA*dG*dG*dA*d[5mC]*dG*dA*dG*kG*kG*k[5mC]) [compound 829775]", "values": [{"measurement": "% Inhibition", "setting": "[5]", "value": 59, "unit": "%"}]}, {"substance": "830088 (kG*kT*kT*dT*dT*dA*d[5mC]*dA*dG*dG*dA*dT*dA*k[5mC]*kA*k[5mC]; antisense) [compound 830088]", "values": [{"measurement": "% Inhibition", "setting": "[2]", "value": 52, "unit": "%"}]}, {"substance": "799153 (antisense kG*kT*kT*dA*dG*dG*dT*dG*dT*d[5mC]*dA*dG*d[5mC]*k[5mC]*kT*kA) [compound 799153]", "values": [{"measurement": "% Inhibition", "setting": "[4]", "value": 68, "unit": "%"}]}]}
